Data published in ChEMBL document CHEMBL3991601, “The target landscape of clinical kinase drugs” (Science, 2017).
The source made the active and inactive calls. For most assays here, no stated cut-off is given here; in the data, actives have a measured Kd and inactives only a lower limit.

Tests used:
[1] = target: T1, Cytochrome c1, heme protein, mitochondrial (Homo sapiens, UniProt P08574)
T1 sequence (P08574 whole entry): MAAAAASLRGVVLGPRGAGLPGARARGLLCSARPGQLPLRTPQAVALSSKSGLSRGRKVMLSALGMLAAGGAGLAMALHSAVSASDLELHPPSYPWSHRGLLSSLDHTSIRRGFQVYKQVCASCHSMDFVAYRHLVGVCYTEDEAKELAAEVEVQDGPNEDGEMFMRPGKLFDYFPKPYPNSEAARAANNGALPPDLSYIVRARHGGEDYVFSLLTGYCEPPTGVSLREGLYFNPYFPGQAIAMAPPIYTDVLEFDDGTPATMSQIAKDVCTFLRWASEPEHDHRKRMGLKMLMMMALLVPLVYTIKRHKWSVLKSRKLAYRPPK

[2] = target: Rho-associated protein kinase 2 (Homo sapiens, UniProt O75116)
Rho-associated protein kinase 2, sequence (O75116 whole entry): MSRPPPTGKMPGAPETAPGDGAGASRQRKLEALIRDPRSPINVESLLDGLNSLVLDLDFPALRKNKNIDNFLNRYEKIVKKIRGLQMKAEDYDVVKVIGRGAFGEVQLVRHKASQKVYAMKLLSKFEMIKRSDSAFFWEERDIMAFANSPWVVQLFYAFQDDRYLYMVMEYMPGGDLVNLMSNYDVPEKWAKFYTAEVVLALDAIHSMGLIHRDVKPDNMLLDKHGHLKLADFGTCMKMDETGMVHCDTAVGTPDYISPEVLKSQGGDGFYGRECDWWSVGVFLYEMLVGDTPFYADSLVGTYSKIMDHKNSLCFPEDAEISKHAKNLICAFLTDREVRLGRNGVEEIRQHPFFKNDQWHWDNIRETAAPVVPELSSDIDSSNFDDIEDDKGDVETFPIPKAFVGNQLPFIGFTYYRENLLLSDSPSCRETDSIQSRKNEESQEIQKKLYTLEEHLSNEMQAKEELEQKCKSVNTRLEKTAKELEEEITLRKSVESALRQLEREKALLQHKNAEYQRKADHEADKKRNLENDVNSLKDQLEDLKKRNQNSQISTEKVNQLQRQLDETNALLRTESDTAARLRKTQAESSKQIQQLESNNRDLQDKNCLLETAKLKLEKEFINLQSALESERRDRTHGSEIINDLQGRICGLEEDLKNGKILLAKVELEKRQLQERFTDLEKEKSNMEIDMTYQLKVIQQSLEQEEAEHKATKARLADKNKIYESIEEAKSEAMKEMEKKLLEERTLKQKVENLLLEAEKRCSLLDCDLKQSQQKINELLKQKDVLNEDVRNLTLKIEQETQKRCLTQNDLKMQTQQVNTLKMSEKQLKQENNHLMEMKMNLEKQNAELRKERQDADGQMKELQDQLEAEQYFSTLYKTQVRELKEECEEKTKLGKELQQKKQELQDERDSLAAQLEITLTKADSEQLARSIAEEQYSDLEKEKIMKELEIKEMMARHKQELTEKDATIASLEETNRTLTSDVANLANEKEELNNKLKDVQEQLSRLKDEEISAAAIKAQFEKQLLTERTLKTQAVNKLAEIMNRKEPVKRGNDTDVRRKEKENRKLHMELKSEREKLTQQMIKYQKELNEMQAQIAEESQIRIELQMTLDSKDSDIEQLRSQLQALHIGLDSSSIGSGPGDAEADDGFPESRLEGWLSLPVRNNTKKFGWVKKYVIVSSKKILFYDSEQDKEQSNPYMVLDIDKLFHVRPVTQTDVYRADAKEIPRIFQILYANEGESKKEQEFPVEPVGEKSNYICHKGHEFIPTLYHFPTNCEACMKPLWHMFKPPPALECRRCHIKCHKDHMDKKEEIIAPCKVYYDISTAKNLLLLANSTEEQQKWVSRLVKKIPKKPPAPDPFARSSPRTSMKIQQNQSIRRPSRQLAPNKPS

[3] = target: Mitogen-activated protein kinase 14 (Homo sapiens, UniProt Q16539)
Mitogen-activated protein kinase 14, sequence (Q16539 whole entry): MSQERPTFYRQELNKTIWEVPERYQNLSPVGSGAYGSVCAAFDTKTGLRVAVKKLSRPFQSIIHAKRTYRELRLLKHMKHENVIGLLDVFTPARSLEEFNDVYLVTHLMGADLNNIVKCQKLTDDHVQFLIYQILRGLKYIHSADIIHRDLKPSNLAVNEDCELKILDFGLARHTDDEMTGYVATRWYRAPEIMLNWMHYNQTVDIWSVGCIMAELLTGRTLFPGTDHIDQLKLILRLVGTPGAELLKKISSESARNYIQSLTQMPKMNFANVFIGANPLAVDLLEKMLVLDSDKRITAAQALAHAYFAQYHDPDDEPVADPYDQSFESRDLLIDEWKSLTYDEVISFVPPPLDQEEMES

[4] = target: T2, Phosphatidylinositol 5-phosphate 4-kinase type-2 alpha (Homo sapiens, UniProt P48426)
T2 sequence (P48426 whole entry): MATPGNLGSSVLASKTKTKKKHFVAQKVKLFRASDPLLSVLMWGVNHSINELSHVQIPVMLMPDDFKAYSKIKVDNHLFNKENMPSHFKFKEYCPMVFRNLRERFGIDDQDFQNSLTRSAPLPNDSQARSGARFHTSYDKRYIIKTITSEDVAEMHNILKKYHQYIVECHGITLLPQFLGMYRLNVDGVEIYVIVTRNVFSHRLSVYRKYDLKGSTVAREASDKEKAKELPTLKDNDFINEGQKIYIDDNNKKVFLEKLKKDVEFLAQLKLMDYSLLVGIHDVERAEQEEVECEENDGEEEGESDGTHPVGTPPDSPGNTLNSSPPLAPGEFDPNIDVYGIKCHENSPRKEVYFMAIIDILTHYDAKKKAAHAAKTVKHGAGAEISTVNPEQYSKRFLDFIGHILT

[5] = target: T3, Mitogen-activated protein kinase kinase kinase 2 (Homo sapiens, UniProt Q9Y2U5)
T3 sequence (Q9Y2U5 whole entry): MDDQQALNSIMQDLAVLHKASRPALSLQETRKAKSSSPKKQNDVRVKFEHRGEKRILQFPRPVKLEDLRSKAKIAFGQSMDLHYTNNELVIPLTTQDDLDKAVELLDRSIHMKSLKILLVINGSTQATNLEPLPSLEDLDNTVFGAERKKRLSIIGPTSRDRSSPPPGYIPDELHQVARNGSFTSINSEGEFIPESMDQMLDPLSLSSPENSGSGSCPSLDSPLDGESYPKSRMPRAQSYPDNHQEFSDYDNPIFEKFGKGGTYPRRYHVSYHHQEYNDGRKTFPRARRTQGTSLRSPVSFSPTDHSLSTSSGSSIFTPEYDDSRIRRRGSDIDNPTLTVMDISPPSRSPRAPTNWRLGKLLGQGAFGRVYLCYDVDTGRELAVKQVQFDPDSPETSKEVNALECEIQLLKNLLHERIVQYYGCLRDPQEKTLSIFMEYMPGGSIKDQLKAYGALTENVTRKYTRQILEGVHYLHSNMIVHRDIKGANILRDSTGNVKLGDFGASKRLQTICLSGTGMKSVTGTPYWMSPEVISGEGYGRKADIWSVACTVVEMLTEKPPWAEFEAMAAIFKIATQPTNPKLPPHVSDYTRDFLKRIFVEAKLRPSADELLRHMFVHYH

[6] = target: Dual specificity protein kinase CLK1 (Homo sapiens, UniProt P49759)
Dual specificity protein kinase CLK1, sequence (P49759 whole entry): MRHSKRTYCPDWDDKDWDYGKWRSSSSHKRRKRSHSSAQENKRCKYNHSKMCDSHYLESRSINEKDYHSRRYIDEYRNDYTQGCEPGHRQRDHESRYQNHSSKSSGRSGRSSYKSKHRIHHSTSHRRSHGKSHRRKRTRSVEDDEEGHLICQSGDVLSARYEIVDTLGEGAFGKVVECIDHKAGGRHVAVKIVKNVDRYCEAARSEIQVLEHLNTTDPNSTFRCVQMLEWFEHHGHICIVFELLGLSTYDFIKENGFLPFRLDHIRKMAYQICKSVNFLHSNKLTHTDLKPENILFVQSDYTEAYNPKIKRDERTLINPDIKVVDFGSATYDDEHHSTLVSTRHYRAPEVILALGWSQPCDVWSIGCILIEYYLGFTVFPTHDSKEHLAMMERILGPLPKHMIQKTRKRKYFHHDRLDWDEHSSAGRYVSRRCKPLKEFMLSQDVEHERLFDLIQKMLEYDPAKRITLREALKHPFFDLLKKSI

[7] = target: Calcium/calmodulin-dependent protein kinase kinase 2 (Homo sapiens, UniProt Q96RR4)
[8] = target: 26S proteasome regulatory subunit 6B (Homo sapiens, UniProt P43686)
[9] = target: Mitogen-activated protein kinase kinase kinase 4 (Homo sapiens, UniProt Q9Y6R4)
Mitogen-activated protein kinase kinase kinase 4, sequence (Q9Y6R4 whole entry): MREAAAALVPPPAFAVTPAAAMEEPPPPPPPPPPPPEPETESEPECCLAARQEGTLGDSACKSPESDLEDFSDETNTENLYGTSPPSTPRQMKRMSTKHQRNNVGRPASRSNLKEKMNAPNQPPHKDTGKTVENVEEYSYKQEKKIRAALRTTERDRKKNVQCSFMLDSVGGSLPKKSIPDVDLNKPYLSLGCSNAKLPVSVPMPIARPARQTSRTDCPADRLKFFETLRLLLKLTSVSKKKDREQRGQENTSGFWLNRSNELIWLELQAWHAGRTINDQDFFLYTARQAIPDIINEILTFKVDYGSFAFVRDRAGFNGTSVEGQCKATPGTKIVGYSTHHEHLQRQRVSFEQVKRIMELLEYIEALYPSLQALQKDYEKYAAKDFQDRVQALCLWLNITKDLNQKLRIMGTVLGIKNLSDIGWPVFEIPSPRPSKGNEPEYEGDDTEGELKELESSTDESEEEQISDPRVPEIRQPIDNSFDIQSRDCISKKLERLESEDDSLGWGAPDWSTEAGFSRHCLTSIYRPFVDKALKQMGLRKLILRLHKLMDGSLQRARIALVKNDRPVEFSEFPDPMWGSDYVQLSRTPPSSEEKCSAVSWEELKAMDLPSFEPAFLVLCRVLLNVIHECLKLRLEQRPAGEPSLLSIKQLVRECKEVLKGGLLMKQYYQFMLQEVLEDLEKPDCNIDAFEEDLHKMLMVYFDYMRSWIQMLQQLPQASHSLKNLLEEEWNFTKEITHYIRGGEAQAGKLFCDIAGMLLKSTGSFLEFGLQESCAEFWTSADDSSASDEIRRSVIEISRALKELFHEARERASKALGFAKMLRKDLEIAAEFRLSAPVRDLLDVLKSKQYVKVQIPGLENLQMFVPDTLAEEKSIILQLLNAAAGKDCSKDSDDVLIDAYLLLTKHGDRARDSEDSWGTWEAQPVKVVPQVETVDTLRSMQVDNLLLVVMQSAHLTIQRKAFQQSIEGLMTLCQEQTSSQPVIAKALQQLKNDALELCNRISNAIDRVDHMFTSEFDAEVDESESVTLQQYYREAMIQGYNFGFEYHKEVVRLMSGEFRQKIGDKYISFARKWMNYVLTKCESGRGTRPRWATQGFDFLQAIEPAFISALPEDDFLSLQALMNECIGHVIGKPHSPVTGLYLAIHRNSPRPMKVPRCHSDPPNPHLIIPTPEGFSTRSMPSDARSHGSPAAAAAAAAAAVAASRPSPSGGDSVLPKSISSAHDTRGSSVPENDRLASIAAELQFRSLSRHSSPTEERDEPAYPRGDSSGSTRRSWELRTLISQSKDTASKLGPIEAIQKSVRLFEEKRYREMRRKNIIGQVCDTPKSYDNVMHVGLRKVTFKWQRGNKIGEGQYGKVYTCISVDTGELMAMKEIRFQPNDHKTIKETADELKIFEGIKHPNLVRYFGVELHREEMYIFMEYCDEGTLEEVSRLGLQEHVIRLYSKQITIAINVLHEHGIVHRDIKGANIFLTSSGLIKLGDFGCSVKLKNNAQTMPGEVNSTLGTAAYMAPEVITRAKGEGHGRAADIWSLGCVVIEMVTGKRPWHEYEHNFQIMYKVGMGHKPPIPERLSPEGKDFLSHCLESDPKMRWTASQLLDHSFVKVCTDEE

[10] = target: Glycogen synthase kinase-3 alpha (Homo sapiens, UniProt P49840)
[11] = target: Serine/threonine-protein kinase/endoribonuclease IRE1 (Homo sapiens, UniProt O75460)
Serine/threonine-protein kinase/endoribonuclease IRE1, sequence (O75460 whole entry): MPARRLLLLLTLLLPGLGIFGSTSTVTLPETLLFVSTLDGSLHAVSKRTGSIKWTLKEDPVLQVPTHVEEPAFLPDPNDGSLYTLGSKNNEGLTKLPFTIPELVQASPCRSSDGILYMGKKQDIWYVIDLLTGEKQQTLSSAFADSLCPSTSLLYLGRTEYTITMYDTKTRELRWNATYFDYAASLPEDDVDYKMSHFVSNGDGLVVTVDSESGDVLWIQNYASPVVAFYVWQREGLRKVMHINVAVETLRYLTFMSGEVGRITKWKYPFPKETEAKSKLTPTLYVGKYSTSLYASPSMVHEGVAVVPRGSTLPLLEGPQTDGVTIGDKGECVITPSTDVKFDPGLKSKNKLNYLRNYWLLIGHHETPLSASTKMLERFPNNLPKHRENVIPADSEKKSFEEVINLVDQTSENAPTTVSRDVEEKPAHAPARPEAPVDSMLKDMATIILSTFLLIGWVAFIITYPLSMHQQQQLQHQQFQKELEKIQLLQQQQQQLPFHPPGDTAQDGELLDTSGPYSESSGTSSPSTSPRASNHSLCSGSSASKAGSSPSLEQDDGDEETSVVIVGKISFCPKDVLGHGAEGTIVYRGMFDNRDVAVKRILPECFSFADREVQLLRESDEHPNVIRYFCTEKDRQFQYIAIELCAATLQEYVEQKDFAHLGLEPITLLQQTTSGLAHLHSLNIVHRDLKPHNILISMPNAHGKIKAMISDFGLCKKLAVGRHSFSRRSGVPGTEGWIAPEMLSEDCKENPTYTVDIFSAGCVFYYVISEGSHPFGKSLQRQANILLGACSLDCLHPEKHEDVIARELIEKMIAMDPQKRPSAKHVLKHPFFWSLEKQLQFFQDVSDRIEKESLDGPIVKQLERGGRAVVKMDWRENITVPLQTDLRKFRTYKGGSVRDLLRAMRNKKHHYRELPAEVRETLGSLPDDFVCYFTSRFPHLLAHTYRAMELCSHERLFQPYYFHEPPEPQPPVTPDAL

[12] = target: cAMP-dependent protein kinase catalytic subunit beta (Homo sapiens, UniProt P22694)
dCTP pyrophosphatase 1 = target: T4, dCTP pyrophosphatase 1 (Homo sapiens, UniProt Q9H773)
T4 sequence (Q9H773 whole entry): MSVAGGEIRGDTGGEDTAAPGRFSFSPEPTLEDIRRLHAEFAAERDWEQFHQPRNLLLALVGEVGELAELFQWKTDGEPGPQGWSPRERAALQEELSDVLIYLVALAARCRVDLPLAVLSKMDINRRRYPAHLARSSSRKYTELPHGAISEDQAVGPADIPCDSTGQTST

[13] = target: Mitogen-activated protein kinase kinase kinase kinase 4 (Homo sapiens, UniProt O95819)
[14] = target: Casein kinase I isoform delta (Homo sapiens, UniProt P48730)

| SMILES | Kd [1] | Kd [2] | Kd [3] | Kd [4] | Kd [5] | Kd [6] | Kd [7] | Kd [8] | Kd [9] | Kd [10] | Kd [11] | Kd [12] | Kd (dCTP pyrophosphatase 1) | Kd [13] | Kd [14] |
| --- | --- | --- | --- | --- | --- | --- | --- | --- | --- | --- | --- | --- | --- | --- | --- |
| CCn1cc(-c2ccnc3[nH]c(-c4cccc(CN(C)C)c4)cc23)c(-c2ccc(NC(=O)N(C)C)cc2)n1 [GSK-1070916] | > 30 µM (inactive) | 2.4 µM (active) | 8.5 µM (active) | > 30 µM (inactive) | > 30 µM (inactive) | > 30 µM (inactive) | > 30 µM (inactive) | > 30 µM (inactive) | 1.43 µM (active) | > 30 µM (inactive) | > 30 µM (inactive) | > 30 µM (inactive) | > 30 µM (inactive) |  |  |
| CC(C)c1cc(CNc2nc(Nc3cc(C4CC4)[nH]n3)cc(N3CCN(C)CC3)n2)on1 [XL-228] | > 30 µM (inactive) | > 30 µM (inactive) | > 30 µM (inactive) |  | > 30 µM (inactive) | > 30 µM (inactive) | 2.34 µM (active) | > 30 µM (inactive) | > 30 µM (inactive) | > 30 µM (inactive) | > 30 µM (inactive) | > 30 µM (inactive) | > 30 µM (inactive) | > 30 µM (inactive) | > 30 µM (inactive) |
| COc1cc(Nc2ncc3c(n2)-c2ccc(Cl)cc2C(c2c(F)cccc2OC)=NC3)ccc1C(=O)O [ALISERTIB] | > 30 µM (inactive) |  |  | > 30 µM (inactive) | > 30 µM (inactive) | > 30 µM (inactive) | > 30 µM (inactive) | > 30 µM (inactive) | > 30 µM (inactive) |  | > 30 µM (inactive) | > 30 µM (inactive) | > 30 µM (inactive) |  |  |
| Cc1cc(Nc2ncnc3ccc(NC4=NC(C)(C)CO4)cc23)ccc1Oc1ccn2ncnc2c1 [TUCATINIB] | > 30 µM (inactive) | > 30 µM (inactive) | > 30 µM (inactive) | > 30 µM (inactive) | > 30 µM (inactive) |  | > 30 µM (inactive) | > 30 µM (inactive) | > 30 µM (inactive) | > 30 µM (inactive) | > 30 µM (inactive) | > 30 µM (inactive) | > 30 µM (inactive) | > 30 µM (inactive) | > 30 µM (inactive) |
| Cc1nc2cc(-c3nn(C(C)C)c4ncnc(N)c34)ccc2o1 | > 30 µM (inactive) | > 30 µM (inactive) | > 30 µM (inactive) | > 30 µM (inactive) | > 30 µM (inactive) | > 30 µM (inactive) | > 30 µM (inactive) | > 30 µM (inactive) | > 30 µM (inactive) | > 30 µM (inactive) | > 30 µM (inactive) | > 30 µM (inactive) | > 30 µM (inactive) |  | 0.152 µM (active) |
| O=C1NC(=O)[C@@H](c2cn3c4c(cccc24)CCC3)[C@@H]1c1c[nH]c2ccccc12 [TIVANTINIB] | > 30 µM (inactive) | > 30 µM (inactive) | > 30 µM (inactive) |  | > 30 µM (inactive) | > 30 µM (inactive) | > 30 µM (inactive) | > 30 µM (inactive) | > 30 µM (inactive) | > 30 µM (inactive) | > 30 µM (inactive) | > 30 µM (inactive) | > 30 µM (inactive) | > 30 µM (inactive) | > 30 µM (inactive) |
| Cn1ncc(Cl)c1-c1cc(C(=O)N[C@H](CN)Cc2ccc(F)c(F)c2)oc1Cl [UPROSERTIB] | > 30 µM (inactive) | 2.28 µM (active) | > 30 µM (inactive) | > 30 µM (inactive) | > 30 µM (inactive) |  | > 30 µM (inactive) | > 30 µM (inactive) | > 30 µM (inactive) | > 30 µM (inactive) | > 30 µM (inactive) | 0.049 µM (active) | > 30 µM (inactive) | > 30 µM (inactive) | > 30 µM (inactive) |
| CC(=O)NCC(=O)N1[C@@H]2CC[C@H]1c1ccc(Nc3ncc(C(F)(F)F)c(NC4CCC4)n3)cc12 [PF-03814735] | > 30 µM (inactive) |  |  | > 30 µM (inactive) | 0.164 µM (active) | > 30 µM (inactive) | 2.19 µM (active) | > 30 µM (inactive) | > 30 µM (inactive) |  | 3.64 µM (active) | > 30 µM (inactive) | > 30 µM (inactive) |  |  |
| CCCCCCCCCCCCCCCCCCOP(=O)([O-])OC1CC[N+](C)(C)CC1 [PERIFOSINE] | > 30 µM (inactive) | > 30 µM (inactive) |  |  | > 30 µM (inactive) | > 30 µM (inactive) | > 30 µM (inactive) | > 30 µM (inactive) | > 30 µM (inactive) | > 30 µM (inactive) | > 30 µM (inactive) | > 30 µM (inactive) | > 30 µM (inactive) | > 30 µM (inactive) | > 30 µM (inactive) |
| O=C(Nc1nc2cccc(-c3ccc(CN4CCS(=O)(=O)CC4)cc3)n2n1)C1CC1 [FILGOTINIB] | > 30 µM (inactive) | > 30 µM (inactive) | > 30 µM (inactive) | > 30 µM (inactive) | > 30 µM (inactive) |  | 3.63 µM (active) | > 30 µM (inactive) | > 30 µM (inactive) | > 30 µM (inactive) | > 30 µM (inactive) | > 30 µM (inactive) | > 30 µM (inactive) | > 30 µM (inactive) | > 30 µM (inactive) |
| COc1cc([C@@H]2c3cc4c(cc3[C@H](O)[C@H]3COC(=O)[C@@H]23)OCO4)cc(OC)c1OC [AXL-1717] | > 30 µM (inactive) | > 30 µM (inactive) | > 30 µM (inactive) | > 30 µM (inactive) | > 30 µM (inactive) |  | > 30 µM (inactive) | > 30 µM (inactive) | > 30 µM (inactive) | > 30 µM (inactive) | > 30 µM (inactive) | > 30 µM (inactive) | > 30 µM (inactive) | > 30 µM (inactive) | > 30 µM (inactive) |
| Cc1[nH]c(/C=C2\C(=O)Nc3ccccc32)c(C)c1CCC(=O)O [ORANTINIB] | > 30 µM (inactive) |  | > 30 µM (inactive) | > 30 µM (inactive) | > 30 µM (inactive) | > 30 µM (inactive) |  | > 30 µM (inactive) | > 30 µM (inactive) |  |  | > 30 µM (inactive) | > 30 µM (inactive) |  |  |
| NC(=O)c1c(OCc2c(F)cc(Br)cc2F)nsc1NC(=O)NCCCCN1CCCC1 [OSI-632] | > 30 µM (inactive) |  |  | > 30 µM (inactive) |  | > 30 µM (inactive) | > 30 µM (inactive) | > 30 µM (inactive) | > 30 µM (inactive) |  | > 30 µM (inactive) |  | > 30 µM (inactive) |  |  |
| O=C(Nc1c[nH]nc1-c1nc2cc(CN3CCOCC3)ccc2[nH]1)NC1CC1 [AT-9283] | > 30 µM (inactive) | > 30 µM (inactive) | > 30 µM (inactive) |  | 0.277 µM (active) | 2.04 µM (active) | > 30 µM (inactive) | > 30 µM (inactive) |  | 0.006 µM (active) | > 30 µM (inactive) | 0.927 µM (active) | > 30 µM (inactive) |  | > 30 µM (inactive) |
